Laboratory results taken from patent publication US20100137342A1, “METHODS FOR TREATING VASCULAR […]” (Myriad Pharmaceuticals, Inc., priority 2007, published 2010).
Counter-ions that a name gives are not always drawn.

What was measured:
[1] = test system: human ovarian OVCAR-3 carcinoma cells; assay: Vascular disruption effects in human tumor xenograft model (tumor histology, hematoxylin and eosin); assay type: in vivo, mice; details: 24 hours after dosing; for blood vessels in the necrotic areas / tumor necrosis pattern (central area of the tumors): OVCAR-3 xenograft in Crl:Nu/Nu-nuBR mice, 10 mg/kg compound or 100 mg/kg CA4P, H&E sections
Procedure: (4-Methoxy-phenyl)-methyl-(2-methyl-quinazolin-4-yl)-amine hydrochloride was tested in a human tumor xenograft model to determine its vascular disruption effects. Crl:Nu/Nu-nuBR mice were grown and injected with 1×10^7 human ovarian OVCAR-3 carcinoma cells on the right flank and allowed to grow to various tumor volumes. Mice were then dosed with either vehicle, 100 mg/kg combretastatin A-4 phosphate (CA4P) (obtained from Toronto Research Chemicals, Ontario, Canada) or 10 mg/kg (4-Methoxy-phenyl)-methyl-(2-methyl-quinazolin-4-yl)-amine hydrochloride.
Animals were housed by groups in Positive Individual Ventilation (PIV) cages in flat-bottom cages (Thoren Caging Systems, Hazelton, Pa.) with no more than ten mice per cage. Cages contained autoclaved TEK-Fresh bedding (Harlan, Indianapolis, Ind.), which was changed every seven days. Environmental controls were set to maintain a temperature between 65° F. and 75° F. with a relative humidity of 30-70% in a 12:12 hour light:dark cycle. Animals were feed gamma-irradiated 2019 rodent chow ad libitum (Harlan, Indianapolis, Ind.). Tap water was sterilized using manufacture recommended conditions and supplied via an automated watering system ad libitum (Edstrom Industries, Waterford, Wis.). Twenty four hours after dosing, mice were sacrificed and tumors and hearts removed, fixed, sectioned and stained with hematoxylin and eosin Y (each obtained from Richard Allen Scientific, Kalamazoo, Mich.).

[2] = Phase I clinical trial, weekly intravenous administration, subjects with refractory solid tumors; assay type: in vivo, human; details: Phase 1, i.v. weekly x3 per 4 week cycle, 0.3-3.3 mg/m^2
Procedure: An open-label, dose-escalating, multiple-dose study to define the safety, tolerability and phamacokinetics of weekly intravenous administration of (4-Methoxy-phenyl)-methyl-(2-methyl-quinazolin-4-yl)-amine hydrochloride was performed. A dosing schedule (each 4 week cycle) was performed for (4-Methoxy-phenyl)-methyl-(2-methyl-quinazolin-4-yl)-amine hydrochloride weekly for 3 weeks with no infusion on the fourth week of each cycle. Subjects with refractory solid tumors were enrolled in cohorts of 3. During Cycle 1, subjects were hospitalized during each infusion of (4-Methoxy-phenyl)-methyl-(2-methyl-quinazolin-4-yl)-amine hydrochloride and remained for observation and safety evaluation for approximately 24 hours following the end of the infusion. All subject had continuous telemetry for 2 hours prior to infusion, for 1-2 hour infusion and for 3 hours after the end of the infusion. Any clinically significant electrocardiographic (ECG) wave form abnormality was recorded and prolongation of the monitoring period extended at the discretion of the principal investigator.
Electrocardiograms were obtained prior to starting the infusion and within 30 minutes of the end of infusion for each infusino of the first cycle. Electrocardiograms on Day 1 were obtained in triplicate 5 minutes apart.
Neurocognitive assessments were made by administration of the Mini-Mental State Examination (MMSE), the Hopkins Verbal Learning and timed Grooved Pegboard tests before administration of the intravenous infusion and approximately 24 hours of the infusion at each weekly administration of the first cycle.
On days 1, 8, and 15 of each cycle, vital signs were obtained prior to the first dose, at 15, 30, and 60 minutes after the initiation of the infusion, and at 0.5, 1, 1.5, 2, and 4 hours after the end of the intravenous infusion. Vital signs at all time points beyond the start of the intravenous infusion included heart rate, blood pressure and respirations. Temperature ws measured at the end of the infusion and 4 hours later.
Individual subjects were allowed to continue on repeated weekly×3 administrations every 28 days with no dose increase provided there was no unacceptable toxicity or disease progression.
Tumor response was evaluated by response evaluation criteria in solid tumors (RECIST) criteria. To prevent sever hypersensitivity reactions due to Cremophor® EL, subjects were premedicated with oral dexamethasone (20 mg) administered approximately 12 and 6 hours before the intravenous infusion with (4-Methoxy-phenyl)-methyl-(2-methyl-quinazolin-4-yl)-amine hydrochloride, diphenhydramine (50 mg) or its equivalent administered intravenously 30-60 minutes before (4-Methoxy-phenyl)-methyl-(2-methyl-quinazolin-4-yl)-amine hydrochloride, and cimetidine (300 mg) or ranitidine (50 mg) administered intravenously 30-60 minutes before (4-Methoxy-phenyl)-methyl-(2-methyl-quinazolin-4-yl)-amine hydrochloride.

Compound	blood vessels in the necrotic areas [1]	tumor necrosis pattern (central area of the tumors) [1]	degree of necrosis compared with CA4P treated animals ([1]; OVCAR-3 xenograft, 10 mg/kg compound vs 100 mg/kg CA4P)	bradycardia [2]	dose limiting toxicity [2]	intratumor bleeding [2]	overall safety and tolerability [2]	peripheral cytotoxicity [2]	systolic blood pressure [2]	effects on cardiac conduction (PR, QRS or QTc) ([2]; ECG)
COc1ccc(/C=C\c2cc(OC)c(OC)c(OC)c2)cc1OP(=O)(O)O [CA4P, combretastatin A-4 phosphate, reference compound]	consistently congested with perivascular hemorrhage	extensive necrosis with a rim of viable tumor tissue around the periphery	–	–	–	–	–	–	–	–
COc1ccc(N(C)c2nc(C)nc3ccccc23)cc1 [(4-Methoxy-phenyl)-methyl-(2-methyl-quinazolin-4-yl)-amine hydrochloride]	consistently congested with perivascular hemorrhage	extensive necrosis with a rim of viable tumor tissue around the periphery	degree of necrosis appeared greater	occasional episodes of bradycardia	vascular in nature, manifested by an acute coronary syndrome	incidences of intratumor bleeding	safe and tolerable	no evidence of cytotoxity peripherally	dose-related increase	no significant effects
